# Patent publication US20240279236A1, “COMPOUNDS AND METHODS OF TREATING TUBERCULOSIS” (Fimbrion Therapeutics, Inc., priority 2021, published 2024)
# System: WT Mtb Erdman strain
# Assay: Microplate Alamar Blue Assay (MABA), Mtb growth inhibition
# Format: cell-based, Mycobacterium tuberculosis
# Details: Mycobacterium tuberculosis, ERDMAN, 168 h, Middlebrook 7H9 media, 7 days at 37° C. in 5% CO2
row,SMILES,IC50
1,"Cc1cc2c(NCCCc3ccc(-c4ccco4)cc3)nc(-c3ccoc3)nc2s1 [Example 337, N-(3-[4-(furan-2-yl)phenyl]propyl)-2-(furan-3-yl)-6-methylthieno[2,3-d]pyrimidin-4-amine]",31 nM
2,"Cc1cc2c(NCCCc3ccc(-c4ccc(C(F)(F)F)nc4)cc3)nc(Cl)nc2s1 [Example 438, 2-chloro-6-methyl-N-(3-(4-(6-(trifluoromethyl)pyridin-3-yl)phenyl)propyl)thieno[2,3-d]pyrimidin-4-amine]",140 nM
3,"CCc1nc(NCCCc2ccc(C(F)(F)F)cc2)c2cc(C)sc2n1 [Example 3, 2-ethyl-6-methyl-N-(3-(4-(trifluoromethyl)phenyl)propyl)thieno [2,3-d]pyrimidin-4-amine]",280 nM
4,"COc1cccc(CCCNc2nc(C(F)(F)F)nc3sc(C)cc23)c1 [Example 241, N-(3-(3-methoxyphenyl)propyl)-6-methyl-2-(trifluoromethyl) thieno[2,3-d] pyrimidin-4-amine]",3100 nM
5,"CCc1nc(NCCCc2ccc(O)cc2)c2cc(C)sc2n1 [Example 70, 4-(3-((2-ethyl-6-methylthieno[2,3-d]pyrimidin-4-yl)amino)propyl) phenol]",230 nM
6,"CCOc1nc(NCCCc2ccc(-c3cnc(C(F)(F)F)cn3)cc2)c2cc(C)sc2n1 [Example 560, 2-ethoxy-6-methyl-N-(3-(4-[5-(trifluoromethyl)pyrazin-2-yl]phenyl)propyl)thieno[2,3-d]pyrimidin-4-amine]",50 nM
7,"CNc1nc(N[C@@H]2C[C@H]2c2ccc(F)c(F)c2)c2cc(C)sc2n1 [Example 525, N4-((1R,2S)-2-(3,4-difluorophenyl)cyclopropyl)-N2,6-dimethylthieno[2,3-d]pyrimidine-2,4-diamine]",4800 nM
8,"Cc1cc2c(NCCCc3ccc(-c4ccc(F)cc4)cc3)nc(N(C)C)nc2s1 [Example 556, N4-(3-(4′-fluoro-[1,1′-biphenyl]-4-yl)propyl)-N2,N2,6-trimethylthieno[2,3-d]pyrimidine-2,4-diamine]",< 4 nM
9,"CCc1nc(N[C@@H]2C[C@H]2c2ccccc2)c2ccsc2n1 (racemic) [Example 175, 2-ethyl-N-((rac-1R,2S)-2-phenylcyclopropyl) thieno[2,3-d]pyrimidin-4-amine]",< 240 nM
10,"CCc1nc(NCCCc2cccc3ccccc23)c2cc(C)sc2n1 [Example 198, 2-ethyl-6-methyl-N-(3-(naphthalen-1-yl)propyl)thieno[2,3-d]pyrimidin-4-amine]",170 nM
11,"Cc1cc2c(NCCCc3ccccc3)nc(-c3cccs3)nc2s1 [Example 63, 6-methyl-N-(3-phenylpropyl)-2-(thiophen-2-yl)thieno[2,3-d]pyrimidin-4-amine]",1900 nM
12,"CCc1nc(NCCCc2ccccc2)c2cc(C(F)(F)F)sc2n1 [Example 99, 2-ethyl-N-(3-phenylpropyl)-6-(trifluoromethyl)thieno [2,3-d]pyrimidin-4-amine]",5700 nM
13,"Cc1cc2c(N[C@@H]3C[C@H]3c3ccc(F)c(F)c3)nc(-c3ccc(F)cc3F)nc2s1 [Example 499, 2-(2,4-difluorophenyl)-N-((1R,2S)-2-(3,4-difluorophenyl)cyclopropyl)-6-methylthieno[2,3-d]pyrimidin-4-amine]",3400 nM
14,"Cc1cc2c(NCCCc3ccc(-c4ccc[nH]4)cc3)nc(-c3ccoc3)nc2s1 [Example 594, 2-(furan-3-yl)-6-methyl-N-(3-[4-(1H-pyrrol-2-yl)phenyl]propyl)thieno[2,3-d]pyrimidin-4-amine]",240 nM
15,"COc1nc(NCCCc2ccc(-c3ccc(OC(F)(F)F)cc3)cc2)c2cc(C)sc2n1 [Example 545, 2-methoxy-6-methyl-N-(3-(4′-(trifluoromethoxy)-[1,1′-biphenyl]-4-yl)propyl)thieno[2,3-d]pyrimidin-4-amine]",10 nM
16,"CCc1nc(NCCCCc2ccccc2)c2cc(C)sc2n1 [Example 25, 2-ethyl-6-methyl-N-(4-phenylbutyl)thieno [2,3-d]pyrimidin-4-amine]",120 nM
17,"Cc1nc2c(NCCCc3ccccc3)nc(-c3ccc(C(F)(F)F)cn3)nc2s1 [Example 145, 2-methyl-N-(3-phenylpropyl)-5-(5-(trifluoromethyl)pyridin-2-yl)thiazolo[5,4-d]pyrimidin-7-amine]",7300 nM
18,"Cc1cc2c(NCCCc3ccc(-c4ccc([N+](=O)[O-])cc4)cc3)nc(N(C)C)nc2s1 [Example 314, N2,N2,6-trimethyl-N4-(3-(4′-nitro-[1,1′-biphenyl]-4-yl)propyl)thieno [2,3-d]pyrimidine-2,4-diamine]",3 nM
19,"Cc1cc2c(N[C@@H]3C[C@H]3c3ccc(F)c(F)c3)nc(-c3ccccc3O)nc2s1 [Example 495, 2-(4-(((1R,2S)-2-(3,4-difluorophenyl)cyclopropyl)amino)-6-methylthieno[2,3-d]pyrimidin-2-yl)phenol]",> 10000 nM
20,"CSc1nc(NCCCc2ccccc2)c2cc(C)sc2n1 [Example 55, 6-methyl-2-(methylthio)-N-(3-phenylpropyl)thieno [2,3-d]pyrimidin-4-amine]",17 nM
21,"Cc1cc2c(NCCCc3ccc(C#N)cc3)nc(C(F)(F)F)nc2s1 [Example 238, 4-(3-((6-methyl-2-(trifluoromethyl)thieno[2,3-d]pyrimidin-4-yl)amino)propyl) benzonitrile]",> 10000 nM
22,"Cc1cc2c(NCCCc3ccccc3)nc(C(C)(C)C)nc2s1 [Example 51, 2-(tert-butyl)-6-methyl-N-(3-phenylpropyl)thieno [2,3-d]pyrimidin-4-amine]",> 10000 nM
23,"Cc1cc2c(NCCCc3ccccc3)nc(CS(C)(=O)=O)nc2s1 [Example 74, 6-methyl-2-((methylsulfonyl)methyl)-N-(3-phenylpropyl)thieno [2,3-d]pyrimidin-4-amine]",> 10000 nM
24,"CCc1nc(NCCCc2ccc(-c3cccc(C(=O)NC)c3)cc2)c2cc(C)sc2n1 [Example 284, 4′-(3-((2-ethyl-6-methylthieno[2,3-d]pyrimidin-4-yl)amino)propyl) N-methyl-[1,1′-biphenyl]-3-carboxamide]",2900 nM
